Target: T1, α-hSlo (BKCa channel α-subunit) (Homo sapiens, UniProt Q12791)
T1 construct: gene KCNMA1; α-hSlo expressed in HEK293T cells
Assay: patch clamp of α-hSlo-expressing HEK293T cells (Figure S1)
Format: cell-based

T1 sequence (Q12791 whole entry): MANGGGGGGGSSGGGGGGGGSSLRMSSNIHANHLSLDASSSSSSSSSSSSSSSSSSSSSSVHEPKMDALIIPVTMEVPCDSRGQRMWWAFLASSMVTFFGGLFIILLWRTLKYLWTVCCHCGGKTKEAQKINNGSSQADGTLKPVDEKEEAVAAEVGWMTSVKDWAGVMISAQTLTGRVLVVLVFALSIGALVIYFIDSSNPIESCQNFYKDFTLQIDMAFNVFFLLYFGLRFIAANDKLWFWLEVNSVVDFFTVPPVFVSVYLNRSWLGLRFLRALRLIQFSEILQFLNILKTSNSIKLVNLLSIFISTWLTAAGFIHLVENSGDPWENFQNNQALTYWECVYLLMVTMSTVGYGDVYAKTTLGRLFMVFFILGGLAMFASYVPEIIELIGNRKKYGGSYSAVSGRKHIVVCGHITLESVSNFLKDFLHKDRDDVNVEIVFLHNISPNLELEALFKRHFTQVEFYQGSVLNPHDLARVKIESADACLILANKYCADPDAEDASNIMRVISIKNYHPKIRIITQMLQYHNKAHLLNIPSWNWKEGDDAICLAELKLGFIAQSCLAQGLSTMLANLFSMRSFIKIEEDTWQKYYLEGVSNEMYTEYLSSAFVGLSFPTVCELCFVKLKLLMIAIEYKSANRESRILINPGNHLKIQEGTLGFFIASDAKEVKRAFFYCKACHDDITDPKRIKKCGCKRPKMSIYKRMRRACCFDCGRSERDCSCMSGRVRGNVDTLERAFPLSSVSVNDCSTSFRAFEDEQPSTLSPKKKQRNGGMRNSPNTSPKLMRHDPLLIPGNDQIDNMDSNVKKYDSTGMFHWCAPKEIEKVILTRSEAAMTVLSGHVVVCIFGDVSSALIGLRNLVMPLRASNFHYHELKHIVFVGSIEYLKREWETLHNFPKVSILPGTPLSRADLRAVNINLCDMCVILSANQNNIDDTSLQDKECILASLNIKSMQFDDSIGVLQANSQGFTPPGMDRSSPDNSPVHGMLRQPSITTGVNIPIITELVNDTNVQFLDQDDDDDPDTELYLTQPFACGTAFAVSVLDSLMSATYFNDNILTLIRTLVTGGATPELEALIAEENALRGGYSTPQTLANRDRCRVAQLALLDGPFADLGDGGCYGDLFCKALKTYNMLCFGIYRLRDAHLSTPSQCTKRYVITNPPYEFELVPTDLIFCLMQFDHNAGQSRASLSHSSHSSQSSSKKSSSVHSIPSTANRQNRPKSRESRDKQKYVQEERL

O=c1cc(CCl)nc2c(-c3cccc4ccccc34)c(C(F)(F)F)[nH]n12 [QO-40, 5-(chloromethyl)-3-(naphthalen-1-yl)-2-(trifluoromethyl)pyrazolo[1,5-a]pyrimidin-7(4H)-one]
patch clamp of α-hSlo-expressing HEK293T cells (Figure S1): In HEK293T cells expressing α-hSlo, QO-40 stimulated BKCa channel activity.
